The text below walks through data of ChEMBL document CHEMBL1697781, “Assessment of the health effects of chemicals in humans: II. Construction of an adverse effects database for QSAR modeling” (Curr Drug Discov Technol, 2004).

Where only a bound is given, the exact number is not on record here.
Throughout, for GGT Increase - Index Value: reference of the scale not given here.
Throughout, for LDH Increase - Index Value: reference of the scale not given here.

The test system of the first data set is Hepatotoxicity. The experiment in a line: FDA HLAED, liver enzyme composite activity. Conditions: human.
For `Oc1ncnc2[nH]ncc12` [ALLOPURINOL], the “Composite Activity - Active” value was determined as 4, the “Composite Activity - Marginal” value was 0 and the “Composite Activity - Score” value is reported as “Active”.

As for `O=NN(CCCl)C(=O)NCCCl` [CARMUSTINE], the “Composite Activity - Active” value is 1 and the “Composite Activity - Marginal” value is 0.

`CCN(CC)CCOc1ccc(/C(=C(/Cl)c2ccccc2)c2ccccc2)cc1` [ENCLOMIPHENE]: the “Composite Activity - Active” value was found to be 3, the “Composite Activity - Marginal” value is on record as 0 and the “Composite Activity - Score” value is given as “Active”.

In the case of `O=c1[nH]cc(F)c(=O)[nH]1` [FLUOROURACIL], the “Composite Activity - Active” value amounted to 1 and the “Composite Activity - Marginal” value turned out to be 1.

On to `COC1=CC(=O)C[C@@H](C)[C@]12Oc1c(Cl)c(OC)cc(OC)c1C2=O` [GRISEOFULVIN], for which the “Composite Activity - Active” value worked out at 4, the “Composite Activity - Marginal” value stood at 0 and the “Composite Activity - Score” value is “Active”.

Take `CN(Cc1cnc2nc(N)nc(N)c2n1)c1ccc(C(=O)N[C@@H](CCC(=O)O)C(=O)O)cc1` [METHOTREXATE]: the “Composite Activity - Active” value was 2, the “Composite Activity - Marginal” value is recorded as 1 and the “Composite Activity - Score” value is “Active”.

Turning to `NC(=O)c1ncn([C@@H]2O[C@H](CO)[C@@H](O)[C@H]2O)n1` [RIBAVIRIN], the “Composite Activity - Active” value came out at 0, the “Composite Activity - Marginal” value is 0 and the “Composite Activity - Score” value is listed as “Inactive”.

The same data set, now with this note: human, Liver.
As for `Cn1cnc([N+](=O)[O-])c1Sc1ncnc2nc[nH]c12` [AZATHIOPRINE], the “Composite Activity - Active” value stood at 3, the “Composite Activity - Marginal” value is listed as 1 and the “Composite Activity - Score” value is reported as “Active”.

As to `O=P1(N(CCCl)CCCl)NCCCO1` (stereo not given) [CYCLOPHOSPHAMIDE ANHYDROUS], the “Composite Activity - Active” value is on record as 4, the “Composite Activity - Marginal” value is reported as 0 and the “Composite Activity - Score” value is “Active”.

For the compound `NNCCc1ccccc1` [PHENELZINE], the “Composite Activity - Active” value turned out to be 3, the “Composite Activity - Marginal” value amounted to 0 and the “Composite Activity - Score” value is “Active”.

A further data set relates to Hepatotoxicity. The experiment in a line: FDA HLAED, serum glutamic pyruvic transaminase (SGPT) increase. To be noted: human.
For `Oc1ncnc2[nH]ncc12` [ALLOPURINOL], the “SGPT Increase - Activity Score” value is given as “Active”, the “SGPT Increase - Index Value” is 9.4 and the “SGPT Increase - Number of Reports” value is recorded as “>= 4”.

As for `Cn1cnc([N+](=O)[O-])c1Sc1ncnc2nc[nH]c12` [AZATHIOPRINE], the “SGPT Increase - Activity Score” value is given as “Active”, the “SGPT Increase - Index Value” is on record as 5.6 and the “SGPT Increase - Number of Reports” value is on record as “>= 4”.

With `O=P1(N(CCCl)CCCl)NCCCO1` (stereo not given) [CYCLOPHOSPHAMIDE ANHYDROUS], the “SGPT Increase - Activity Score” value is reported as “Active”, the “SGPT Increase - Index Value” was 8.5 and the “SGPT Increase - Number of Reports” value is on record as “>= 4”.

Turning to `CCN(CC)CCOc1ccc(/C(=C(/Cl)c2ccccc2)c2ccccc2)cc1` [ENCLOMIPHENE], the “SGPT Increase - Activity Score” value is given as “Active”, the “SGPT Increase - Index Value” is recorded as 25 and the “SGPT Increase - Number of Reports” value is on record as “>= 4”.

For the compound `COC1=CC(=O)C[C@@H](C)[C@]12Oc1c(Cl)c(OC)cc(OC)c1C2=O` [GRISEOFULVIN], the “SGPT Increase - Activity Score” value is “Active”, the “SGPT Increase - Index Value” is on record as 6.9 and the “SGPT Increase - Number of Reports” value is “>= 4”.

`CN(Cc1cnc2nc(N)nc(N)c2n1)c1ccc(C(=O)N[C@@H](CCC(=O)O)C(=O)O)cc1` [METHOTREXATE]: the “SGPT Increase - Activity Score” value was “Active”, the “SGPT Increase - Index Value” is recorded as 6.4 and the “SGPT Increase - Number of Reports” value is recorded as “>= 4”.

Regarding `NNCCc1ccccc1` [PHENELZINE], the “SGPT Increase - Activity Score” value is on record as “Active”, the “SGPT Increase - Index Value” came out at 4.9 and the “SGPT Increase - Number of Reports” value is recorded as “>= 4”.

On to `NC(=O)c1ncn([C@@H]2O[C@H](CO)[C@@H](O)[C@H]2O)n1` [RIBAVIRIN], for which the “SGPT Increase - Activity Score” value is recorded as “Inactive” and the “SGPT Increase - Number of Reports” value is given as less than 4.

The next data set relates to Hepatotoxicity. The experiment in a line: FDA HLAED, alkaline phosphatase increase. Conditions: human.
`Oc1ncnc2[nH]ncc12` [ALLOPURINOL]: the “Alkaline Phosphatase Increase - Activity Score” value is listed as “Active”, the “Alkaline Phosphatase Increase - Index Value” is 4.7 and the “Alkaline Phosphatase Increase - Number of Reports” value is given as “>= 4”.

For `Cn1cnc([N+](=O)[O-])c1Sc1ncnc2nc[nH]c12` [AZATHIOPRINE], the “Alkaline Phosphatase Increase - Activity Score” value is “Active”, the “Alkaline Phosphatase Increase - Index Value” was 4.5 and the “Alkaline Phosphatase Increase - Number of Reports” value is recorded as “>= 4”.

Regarding `O=P1(N(CCCl)CCCl)NCCCO1` (stereo not given) [CYCLOPHOSPHAMIDE ANHYDROUS], the “Alkaline Phosphatase Increase - Activity Score” value was “Active”, the “Alkaline Phosphatase Increase - Index Value” is on record as 4.6 and the “Alkaline Phosphatase Increase - Number of Reports” value is given as “>= 4”.

On to `O=c1[nH]cc(F)c(=O)[nH]1` [FLUOROURACIL], for which the “Alkaline Phosphatase Increase - Activity Score” value is “Active”, the “Alkaline Phosphatase Increase - Index Value” turned out to be 5.5 and the “Alkaline Phosphatase Increase - Number of Reports” value was “>= 4”.

In the case of `COC1=CC(=O)C[C@@H](C)[C@]12Oc1c(Cl)c(OC)cc(OC)c1C2=O` [GRISEOFULVIN], the “Alkaline Phosphatase Increase - Activity Score” value is “Active”, the “Alkaline Phosphatase Increase - Index Value” turned out to be 5.5 and the “Alkaline Phosphatase Increase - Number of Reports” value is “>= 4”.

In the case of `NC(=O)c1ncn([C@@H]2O[C@H](CO)[C@@H](O)[C@H]2O)n1` [RIBAVIRIN], the “Alkaline Phosphatase Increase - Activity Score” value is given as “Inactive” and the “Alkaline Phosphatase Increase - Number of Reports” value was less than 4.

In another data set the test system is Hepatotoxicity. The data set is described as follows: FDA HLAED, lactate dehydrogenase (LDH) increase. To be noted: human.
`O=NN(CCCl)C(=O)NCCCl` [CARMUSTINE]: the “LDH Increase - Activity Score” value was “Active”, the “LDH Increase - Index Value” is recorded as 14.6 and the “LDH Increase - Number of Reports” value is “>= 4”.

Consider `O=P1(N(CCCl)CCCl)NCCCO1` (stereo not given) [CYCLOPHOSPHAMIDE ANHYDROUS], for which the “LDH Increase - Activity Score” value is “Active”, the “LDH Increase - Index Value” turned out to be 8.5 and the “LDH Increase - Number of Reports” value is recorded as “>= 4”.

As to `O=c1[nH]cc(F)c(=O)[nH]1` [FLUOROURACIL], the “LDH Increase - Activity Score” value was “Marginally Active”, the “LDH Increase - Index Value” is recorded as 3.6 and the “LDH Increase - Number of Reports” value was “>= 4”.

In the case of `CN(Cc1cnc2nc(N)nc(N)c2n1)c1ccc(C(=O)N[C@@H](CCC(=O)O)C(=O)O)cc1` [METHOTREXATE], the “LDH Increase - Activity Score” value was “Marginally Active”, the “LDH Increase - Index Value” is 3.5 and the “LDH Increase - Number of Reports” value is “>= 4”.

The test system of the next data set is Hepatotoxicity. The data set is described as follows: FDA HLAED, serum glutamic oxaloacetic transaminase (SGOT) increase. To be noted: human.
Consider `Oc1ncnc2[nH]ncc12` [ALLOPURINOL], for which the “SGOT Increase - Activity Score” value is “Active”, the “SGOT Increase - Index Value” came out at 15 and the “SGOT Increase - Number of Reports” value is given as “>= 4”.

On to `Cn1cnc([N+](=O)[O-])c1Sc1ncnc2nc[nH]c12` [AZATHIOPRINE], for which the “SGOT Increase - Activity Score” value is recorded as “Active”, the “SGOT Increase - Index Value” is 5 and the “SGOT Increase - Number of Reports” value was “>= 4”.

As for `O=P1(N(CCCl)CCCl)NCCCO1` (stereo not given) [CYCLOPHOSPHAMIDE ANHYDROUS], the “SGOT Increase - Activity Score” value is given as “Active”, the “SGOT Increase - Index Value” is reported as 8.5 and the “SGOT Increase - Number of Reports” value is “>= 4”.

In the case of `CCN(CC)CCOc1ccc(/C(=C(/Cl)c2ccccc2)c2ccccc2)cc1` [ENCLOMIPHENE], the “SGOT Increase - Activity Score” value is reported as “Active”, the “SGOT Increase - Index Value” turned out to be 18.8 and the “SGOT Increase - Number of Reports” value is recorded as “>= 4”.

For `COC1=CC(=O)C[C@@H](C)[C@]12Oc1c(Cl)c(OC)cc(OC)c1C2=O` [GRISEOFULVIN], the “SGOT Increase - Activity Score” value was “Active”, the “SGOT Increase - Index Value” was 5.5 and the “SGOT Increase - Number of Reports” value is recorded as “>= 4”.

Turning to `CN(Cc1cnc2nc(N)nc(N)c2n1)c1ccc(C(=O)N[C@@H](CCC(=O)O)C(=O)O)cc1` [METHOTREXATE], the “SGOT Increase - Activity Score” value is reported as “Active”, the “SGOT Increase - Index Value” was determined as 5.3 and the “SGOT Increase - Number of Reports” value was “>= 4”.

`NNCCc1ccccc1` [PHENELZINE]: the “SGOT Increase - Activity Score” value is “Active”, the “SGOT Increase - Index Value” amounted to 4.9 and the “SGOT Increase - Number of Reports” value is on record as “>= 4”.

For `NC(=O)c1ncn([C@@H]2O[C@H](CO)[C@@H](O)[C@H]2O)n1` [RIBAVIRIN], the “SGOT Increase - Activity Score” value was “Inactive” and the “SGOT Increase - Number of Reports” value is less than 4.

In a further data set the test system is Hepatotoxicity. The data set is described as follows: FDA HLAED, gamma-glutamyl transferase (GGT) increase. Conditions: human.
For `Oc1ncnc2[nH]ncc12` [ALLOPURINOL], the “GGT Increase - Activity Score” value was “Active”, the “GGT Increase - Index Value” is on record as 9.4 and the “GGT Increase - Number of Reports” value is given as “>= 4”.

As to `Cn1cnc([N+](=O)[O-])c1Sc1ncnc2nc[nH]c12` [AZATHIOPRINE], the “GGT Increase - Activity Score” value is “Marginally Active”, the “GGT Increase - Index Value” stood at 3.3 and the “GGT Increase - Number of Reports” value is “>= 4”.

Regarding `CCN(CC)CCOc1ccc(/C(=C(/Cl)c2ccccc2)c2ccccc2)cc1` [ENCLOMIPHENE], the “GGT Increase - Activity Score” value was “Active”, the “GGT Increase - Index Value” was found to be 15.6 and the “GGT Increase - Number of Reports” value was “>= 4”.

As to `COC1=CC(=O)C[C@@H](C)[C@]12Oc1c(Cl)c(OC)cc(OC)c1C2=O` [GRISEOFULVIN], the “GGT Increase - Activity Score” value is “Active”, the “GGT Increase - Index Value” is 5.5 and the “GGT Increase - Number of Reports” value is listed as less than 4.

As for `NNCCc1ccccc1` [PHENELZINE], the “GGT Increase - Activity Score” value is given as “Active”, the “GGT Increase - Index Value” was found to be 4.9 and the “GGT Increase - Number of Reports” value was “>= 4”.

As to `NC(=O)c1ncn([C@@H]2O[C@H](CO)[C@@H](O)[C@H]2O)n1` [RIBAVIRIN], the “GGT Increase - Activity Score” value is listed as “Inactive” and the “GGT Increase - Number of Reports” value is less than 4.
